Data on one molecule can be found in ChEMBL document CHEMBL4049389, “Design, synthesis and biological evaluation of aminobenzyloxyarylamide derivatives as selective κ opioid receptor antagonists” (Eur J Med Chem, 2017).

What all share (assay type): ADME, organism-based
Holding throughout (conditions): in vivo

Data set [1] is described as follows: Half life in rat at 1 or 10 mg/kg, iv or po by LC-MS/MS analysis.
The nature of data set [2]: Oral bioavailability in rat at 10 mg/kg by LC-MS/MS analysis.
Data set [3] is described as follows: Tmax in rat at 1 or 10 mg/kg, iv or po by LC-MS/MS analysis.

Usually half-life stands for how long it takes for the measured level to halve. The low end stands for fast loss, the high end for slow loss. Usually bioavailability stands for the share of a dose that reaches the circulation, judged against a reference dose that is usually intravenous. A higher bioavailability goes with good availability. One may read the Tmax as the time at which the peak concentration occurs. Regarding `Cc1cc(C)cc([C@@H]2CCCN2Cc2ccc(Oc3ccc(C(N)=O)cc3F)cc2)c1` [ATICAPRANT], in data set [1], the half-life was in the range of 2 to 4 h. For the same molecule, in data set [2], the bioavailability is 25%. Besides, in data set [3], the Tmax is 1 to 2 h.
